This is an account of results in US4051259A, “Phenoxyacetic acid amide” (Les Laboratoires Bruneau & Cie, priority 1975, dated 1977).

One data set relates to rat. Description: anorexigenic activity (ED50) by the method of LeDouarec. Type of data set: in vivo. Particulars: for ED50: rat, po, read-out: ED50 po (anorexia); for anorexigenic activity (in words): comparison of results within the table. The source says: (§1) The toxicity (LD50) has been determined in the mice by the method of Karber and Behrens (Arch. Expl. Pathol. Pharmacol., 1931, 162, 48) and the anorexigenic activity (ED50) in the rat by the method of LeDouarec (J. Pharmacol. Paris 1970, 1, 419-22).

Data set [1] in a line: toxicity (LD50) by the method of Karber and Behrens. Type of data set: in vivo, mice. Conditions: mouse, in vivo; mice, po.
Text: as §1

In a further data set the test system is mice. The data set is described as above. Type of data set: in vivo. Particulars: for toxicity (in words): comparison of results within the table.
Text: as §1

Where only a bound is given, the exact number is not on record here.

Turning to `CCNc1ccc(OCC(=O)NC(C)Cc2cccc(C(F)(F)F)c2)cc1` (stereo not drawn) [LB 359], the ED50 in the data set on rat worked out at 15 mg/kg. Further, the LD50 in data set [1] was 1600 mg/kg.

For `CNc1ccc(OCC(=O)NC(C)Cc2cccc(C(F)(F)F)c2)cc1` (stereo not drawn) [LB 367], in the data set on rat, the median effective dose (ED50) came to 12 mg/kg. Also, in data set [1], the LD50 came to 800 mg/kg.

In the case of `CCCNc1ccc(OCC(=O)NC(C)Cc2cccc(C(F)(F)F)c2)cc1` (stereo not drawn) [LB 368], in the data set with rat, the ED50 is 20 mg/kg. The LD50 in data set [1] is greater than 1600 mg/kg.

Consider `CC(C)CNc1ccc(OCC(=O)NC(C)Cc2cccc(C(F)(F)F)c2)cc1` (stereo not drawn) [LB 369], for which, in the data set on rat, the ED50 turned out to be 25 mg/kg. For the same compound, in data set [1], the LD50 is greater than 2000 mg/kg.

As to `CCCCCNc1ccc(OCC(=O)NC(C)Cc2cccc(C(F)(F)F)c2)cc1` (stereo not drawn) [LB 411, 1-methyl-2-(m-trifluoromethylphenyl)-ethylamide of p-pentylaminophenoxyacetic acid], the entries for the “anorexigenic activity (in words)” value in the data set on rat and in the data set on rat (listed as n-pentyl derivative) were “particularly high” and “outstanding anorexia-inducing properties”, respectively. For the same compound, the ED50 in the data set with rat worked out at 10 mg/kg. Also, the “intensity of intoxication symptoms” value in the data set on mice (at doses near the LD50) is on record as “relatively weak”. The intoxication symptoms entry with mice (at doses near the LD50, first hour, then later) is “hypomotility and hypothermia during the first hour than tremor and convulsions”. Further, the entries for the “toxicity (in words)” value with mice and with mice (listed as n-pentyl derivative) were “very low” and “low toxicity”, respectively. Also, the “doses at which intoxication symptoms appear” value in the data set on mice (doses relative to LD50) is “only at doses near of the LD50”. In data set [1], the LD50 was found to be 4000 mg/kg.

As to `CCCCCCNc1ccc(OCC(=O)NC(C)Cc2cccc(C(F)(F)F)c2)cc1` (stereo not drawn) [LB 446], the ED50 with rat was found to be 45 mg/kg. Further, the LD50 in data set [1] was greater than 4000 mg/kg.

In the case of `CCCCNc1ccc(OCC(=O)NC(C)Cc2cccc(C(F)(F)F)c2)cc1` (stereo not drawn) [LB 448], the ED50 in the data set with rat was found to be 20 mg/kg. Moreover, in data set [1], the 50% lethal dose (LD50) is greater than 2000 mg/kg.

Usually ED50 stands for the dose at which the effect has come halfway, by size or by number of responders. In general, LD50 refers to the dose at which mortality reaches 50%. A lower LD50 goes with a more toxic substance.
